Assay results reported in patent publication US6281218A, “Benzimidazolone derivatives having mixed serotonin and dopamine receptors affinity” (Ingelheim Italia S.p.A., priority 1999, dated 2001).

What was measured:
[1] = biological target: T1, 5-HT1A receptor (Rattus norvegicus, UniProt P19327); experiment: 5-HT1A receptor binding, [3H]-8-OH-DPAT displacement; details: rat hippocampus tissue, read-out: K1 (nM) for 5-HT1A (rat hippocampus tissue)
T1 construct: from tissue; host or cells: rat hippocampus (male Sprague-Dawley)
T1 sequence (P19327 1-422): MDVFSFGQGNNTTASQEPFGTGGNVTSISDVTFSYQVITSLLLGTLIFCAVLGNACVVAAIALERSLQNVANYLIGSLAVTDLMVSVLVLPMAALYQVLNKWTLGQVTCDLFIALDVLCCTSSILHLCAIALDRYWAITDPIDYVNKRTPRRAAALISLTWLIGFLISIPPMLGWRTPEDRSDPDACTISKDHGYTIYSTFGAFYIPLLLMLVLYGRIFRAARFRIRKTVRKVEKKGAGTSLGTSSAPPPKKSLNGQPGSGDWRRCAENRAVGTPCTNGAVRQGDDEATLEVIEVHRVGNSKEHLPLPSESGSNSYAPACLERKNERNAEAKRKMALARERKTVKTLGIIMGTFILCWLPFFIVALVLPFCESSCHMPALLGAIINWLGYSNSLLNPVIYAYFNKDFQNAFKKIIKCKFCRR
Experimental: Male Sprague-Dawley rats (200-250 g) were used. The hippocampus taken from these animals was homogenized in 10 volumes of ice cold 50 mM TIUS buffer (pH 7.4). The homogenate was diluted 1:400 (w:v) in the same buffer to have a final protein concentration of about 200 μg/ml, filtered and incubated at 37° C. for 10 minutes before use.
Displacement experiments were performed by incubating the homogenate (980 μl) in the presence of [^3 H]-8-OH-DPAT (10 μl; 1.0-1.2 nM) and different concentrations of the test compounds dissolved in DMSO (10 μl), at 30° C. for 15 minutes (final volume: 1 ml). Nonspecific binding was determined in the presence of 10 μM 5-HT (10 μl). The reaction was stopped by rapid filtration through Inotech IH 201 filters using an Inotech Cell Harvester. The radioactivity was counted by liquid scintillation spectrometry.
(§1) The affinity values (Ki) for the compounds were obtained by a nonlinear least squares regression analysis on the basis of a one binding site model. The values were corrected on the basis of the radioligand occupancy on the receptors according to the equation: Ki =IC50 /(1+[C]/Kd), where [C] and Kd represent the concentration and the dissociation constant of the used radioligands ([^3 H]-8-OH-DPAT for the 5-HT1A binding, [^3 H]-Ketanserine for the 5-HT2A binding and [^3 H]-YM 09151-2) for the D4 binding, respectively).

[2] = biological target: T2, D4 receptor (Homo sapiens, UniProt P21917); experiment: D4 receptor binding, [3H]-YM 09151-2 displacement; details: CHO cell membranes, read-out: K1 (nM) for D4 (CHO cell membranes)
T2 construct: expressed in transfected cells; host or cells: CHO cells
T2 sequence (P21917 1-419): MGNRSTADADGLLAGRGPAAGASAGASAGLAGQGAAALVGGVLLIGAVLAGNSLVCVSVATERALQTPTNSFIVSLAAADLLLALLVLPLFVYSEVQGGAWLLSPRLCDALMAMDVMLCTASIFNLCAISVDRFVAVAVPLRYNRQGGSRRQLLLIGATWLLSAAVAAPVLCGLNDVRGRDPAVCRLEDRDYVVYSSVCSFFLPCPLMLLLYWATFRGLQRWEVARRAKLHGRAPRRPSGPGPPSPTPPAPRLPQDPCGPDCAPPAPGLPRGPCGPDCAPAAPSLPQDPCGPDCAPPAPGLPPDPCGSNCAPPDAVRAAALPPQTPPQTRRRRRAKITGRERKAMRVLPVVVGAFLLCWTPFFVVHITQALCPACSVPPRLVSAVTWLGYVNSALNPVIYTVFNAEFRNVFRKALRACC
Experimental: Cells were grown in monolayer at 37° C. in 95% air/5% CO2 in Dulbecco's Modified Eagle Medium (DMEM) supplemented with 7.5% (v/v) heat-inactivated fetal bovine serum (FBS), 2.5% (v/v) heat-inactivated horse serum donor herd, 2% of a stock solution containing 5000 I.U./ml penicillin and 5000 μg/ml streptomycin, 1% (v/v) of a solution MEM containing non-essential amino acid, 2 mM glutamine ind 200 μg/ml geneticin. Cells were passaged twice a week using a trypsin/EDTA solution and the split rate was 1:4. Cells were not subcultured more than 17 times.
Preparation of cell membranes:
The cells grown to confluence were washed twice with Dulbecco's PBS buffer and were detached adding VERSENE (PBS containing 0.2 g/l EDTA) for 10 minutes at 37° C. The cell suspension was centrifuged at 1,000 rpm for 10 minutes and the pellet was harvested in DMEM with 10% DMSO and stored at -80° C. Before use, cells were thawed, centrifuged at 1,000 rpm for 10 minutes and the pellet was resuspended in PBS. The cells were centrifuged again at 270×g for 10 minutes at 4° C. and the pellet was resuspended in a lysis buffer (10 mM Tris-HCl pH 7.4, 5 mM Na2 EDTA and protease inhibitors) and incubated for 30 minutes on ice. Cells were homogenized with an Ultra Turrax homogenizer. Unbroken cells and nuclei were removed by an initial centrifugation at 270×g for 10 minutes at 4° C. and crude membranes were collected from the supernatant by a 60 minute spin at 130,000×g. The pelleted membranes were resuspended in the same lysis buffer with 20 strokes by a Potter homogenizer. The final cell membrane suspension, corresponding to about 1×10^7 original cells/ml, was aliquoted and immediately frozen at -80° C.
D4 receptor binding studies were carried out in membranes from CHO cells prepared as above. The membranes were dilute in incubation buffer (50 ml/ TRIS-HCl pH 7.4, 5 mM MgCl2·6H2 O, 5 mM KCl, 1.5 mM CaCl2·2H2 O, 5 mM EDTA) according to their receptor density.
Displacement experiment were performed in 1000 μl total volume incubating the membranes (980 μl) in the presence of [^3 H]-YM 09151-2 (10 μl; 0.15-0.25 nM) and different concentrations of the test compounds dissolved in DMISO (10 μl) at 27° C. for two hours. Nonspecific binding was determined in the presence of 10 μM of Clozapine (10 μl). The reaction was stopped by rapid filtration through Inotech IH 201 filters (pre-soaked in 0.1% polyethyleneimine) using an Inotech Cell Harvester. The radioactivity was counted by liquid scintillation spectrometry.
as §1

[3] = biological target: T3, 5-HT2A receptor (Rattus norvegicus, UniProt P14842); experiment: 5-HT2A receptor binding, [3H]-Ketanserine displacement; details: rat cortex tissue, read-out: K1 (nM) for 5-HT2A (Rat cortex tissue)
T3 construct: Cerebral cortex was homogenized in 10 volumes of ice cold 0.32 M sucrose; from tissue; host or cells: rat cerebral cortex (male Sprague-Dawley)
T3 sequence (P14842 whole entry): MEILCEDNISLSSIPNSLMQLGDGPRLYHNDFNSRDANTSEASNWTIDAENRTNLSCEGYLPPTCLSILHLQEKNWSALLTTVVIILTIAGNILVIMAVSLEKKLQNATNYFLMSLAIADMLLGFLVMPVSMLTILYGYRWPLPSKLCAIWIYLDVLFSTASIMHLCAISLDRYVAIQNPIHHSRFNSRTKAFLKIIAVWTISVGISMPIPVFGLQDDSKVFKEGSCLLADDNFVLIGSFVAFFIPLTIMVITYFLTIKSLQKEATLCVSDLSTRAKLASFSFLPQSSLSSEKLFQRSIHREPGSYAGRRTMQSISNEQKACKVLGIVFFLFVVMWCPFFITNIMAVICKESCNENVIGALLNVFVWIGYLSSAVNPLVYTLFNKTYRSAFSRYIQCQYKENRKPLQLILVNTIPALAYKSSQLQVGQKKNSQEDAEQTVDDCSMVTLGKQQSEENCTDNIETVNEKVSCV
Experimental: Male Sprague-Dawley rats (200-250 g) were used. Cerebral cortex was homogenized in 10 volumes of ice cold 0.32 M sucrose. After the centrifugation of the homogenate (1,000×g for 10 minutes) the supernatant was then recentrifuged at 48,000×g for 15 minutes. The resulting pellet was suspended in 10 volumes of 50 mM TRIS buffer (pH 7.4), incubated at 37° C. for 10 minutes and recentrifuged at 48,000 × g for 15 minutes. The residue was then resuspended in 10 volumes of 50 mM TRIS buffer (pH 7.4).
The tissue was diluted 1:100 (w:v) in 50 mM TRIS buffer (pH 7.4) to have a final concentration of about 200 μg/ml. Displacement experiments were performed by incubating the homogenate (980 μl) in the presence of [^3 H]-Ketanserine (10 μl; 0.5-0.6 nM) and different concentrations of the test compounds dissolved in DMSO (10 μl) at 37° C. for 10 minutes (final volume: 1 ml). Nonspecific binding was determined in the presence of 100 μM Methysergide (10 μl). The reaction was stopped by rapid filtration through Inotech IH 201 filters using an Inotech Cell Harvester. The radioactivity was counted by liquid scintillation spectrometry.
as §1

Row | SMILES | Ki [1] [nM] | Ki [2] [nM] | Ki [3] [nM]
1 | O=c1[nH]c2ccccc2n1CCN1CCN(c2cc(O)cc(C(F)(F)F)c2)CC1 [Compound 6, 1-{2-[4-(3-Hydroxy-5-trifluoromethylphenyl)piperazin-1-yl]ethyl}-1,3-dihydro-benzimidazol-2-one] | 156 | 24.8 | 328
2 | O=c1[nH]c2cc(O)ccc2n1CCN1CCN(c2cccc(C(F)(F)F)c2)CC1 [Compound 1, 5-Hydroxy-1-{2-[4-(3-trifluoromethylphenyl)piperazin-1-yl]ethyl}-1,3-dihydro-benzimidazol-2-one] | 40.8 | 287 | 58.5
3 | O=c1[nH]c2c(O)cccc2n1CCN1CCN(c2cccc(C(F)(F)F)c2)CC1 [Compound 3, 4-Hydroxy-1-{2-[4-(3-trifluoromethylphenyl)piperazin-1-yl]ethyl}-1,3-dihydro-benzimidazol-2-one] | 15.4 | 33.9 | 43.8
4 | O=c1[nH]c2cccc(O)c2n1CCN1CCN(c2cccc(C(F)(F)F)c2)CC1 [Compound 4, 7-Hydroxy-1-{2-[4-(3-trifluoromethylphenyl)piperazin-1-yl]ethyl}-1,3-dihydro-benzimidazol-2-one] | 1590 | 652 | 23.8
5 | O=c1[nH]c2ccccc2n1CCN1CCN(c2cc(C(F)(F)F)ccc2O)CC1 [Compound 7, 1-{2-[4-(2-Hydroxy-5-trifluoromethylphenyl)piperazin-1-yl]ethyl}-1,3-dihydro-benzimidazol-2-one] | > 10000 | – | 4440
6 | O=c1[nH]c2ccc(O)cc2n1CCN1CCN(c2cccc(C(F)(F)F)c2)CC1 [Compound 2, 6-Hydroxy-1-{2-[4-(3-trifluoromethylphenyl)piperazin-1-yl]ethyl}-1,3-dihydro-benzimidazol-2-one] | 333 | 804 | 33.8
7 | O=c1[nH]c2ccccc2n1CCN1CCN(c2ccc(O)c(C(F)(F)F)c2)CC1 [Compound 5, 1-{2-[4-(4-Hydroxy-3-trifluoromethylphenyl)piperazin-1-yl]ethyl}-1,3-dihydro-benzimidazol-2-one] | 369 | 17.8 | 705
